In paper PMC11714206, “Massively Parallel Screening of Toll/Interleukin‐1 Receptor (TIR)‐Derived Peptides Reveals Multiple Toll‐Like Receptors (TLRs)‐Targeting Immunomodulatory Peptides” (Advanced Science, 2024):
“And” between values parts separate entries of the source, which are not always exact repeats. Identical values can stand only once. One block for each substance: values may come before it.

Target: T1, MAL^TIR (Homo sapiens, UniProt P58753)
T1 construct: MAL (residues 79–221); 6xHis; made in house; host or cells: E. coli BL21 (DE3)
Test: T‐Surf phage library (P8 and P3) selection against MAL^TIR, four rounds, NGS read counts
Type: binding
Conditions: for P3_MAL Rank (after) / P3_MAL Rank (before): P3 library; for P8_MAL Rank (after) / P8_MAL Rank (before): P8 library; for Population: 4th round of selection against MAL TIR, share of NGS reads
Experimental: T‐Surf libraries were screened against the immobilized TIR domains of two major human TLR adaptor proteins, MAL^TIR and MyD88^TIR, allowing cross‐species selection of TIR‐binding motifs with 190 946 TIR‐derived peptides in a single binding assay (Scheme 1). Enriched phage pools from the fourth round of selection were analyzed using NGS after barcoding the peptide‐coding regions of the phage pools.
Phage display screening was performed by coating two wells of a 96‐well plate (Maxisorp, Thermo Fisher Scientific) with 100 µL of 5 µg mL^−1 TIR domains overnight; then, the coated wells were blocked with 200 µL of blocking buffer (0.2% BSA in PBS) and set aside for 1 h at 4 °C with gentle shaking. Next, 100 µL of the phage library was added to the wells and incubated for 1 h at room temperature (RT; 20 – 22 °C) with gentle shaking. The plate was washed four times with PBS containing 0.5% Tween‐20; the bound phages were eluted by adding 100 µL of 100 mM HCl to each well. The elute was neutralized with 10 µL of 1.0 M Tris‐HCl (pH 11.0). E. coli TG1 cells were grown to the log phase (A600 = ≈0.6), and 1 mL of the culture was incubated with 100 µL of the eluted phages for 30 min at 37 °C, with shaking at 200 rpm. Next, 1 µL of M13KO7 helper phages was added, followed by incubation for 45 min at 37 °C, with shaking. Subsequently, the cells were transferred to 25 mL of 2× yeast extract tryptone/carbenicillin/kanamycin medium and incubated overnight at 37 °C with shaking at 200 rpm. The amplified phages were precipitated with 20% PEG‐8000/2.5 M NaCl to be used for the next round of selection.
The naïve T‐Surf libraries in P8 and P3 and the enriched phage pools after four rounds were barcoded for NGS as previously described.^[ [59] ^] Briefly, 5 µL of the phage pool was used as a template for 20 cycles of a 50 µL PCR reaction using […] each of forward and reverse barcoded primers and PrimeSTAR Max DNA Polymerase. The PCR products were purified using Expin Gel SV (GeneAll). The NGS samples were quantified using qPCR, following the qPCR Quantification Protocol Guide (KAPA Library Quantification kits for Illumina Sequencing Platform), and qualified using the TapeStation High Sensitivity D1000 ScreenTape (Agilent Technologies). The indexed libraries were further sequenced by Macrogen (Seoul, Republic of Korea) using the NovaSeq platform (Illumina) with 100 bp paired‐end reads. The reads were demultiplexed by barcodes and filtered for an average Phred quality score of at least 30, followed by trimming the flanking consensus sequences using Cutadapt (version 2.3). Peptide sequence populations were analyzed according to the read counts.

[1] = 4R selection against MAL, rank after grouping
[2] = 4R selection against MAL, rank before grouping
[3] = selection against MAL, rank by count after grouping
[4] = selection against MAL, rank by count before grouping
[5] = selection against MAL, rank after grouping
[6] = selection against MAL, rank before grouping
[7] = P8_MAL pool: P8 T-Surf phage library
[8] = P8_MAL: rank by count after grouping
[9] = P8_MAL: rank by count before grouping
[10] = P3_MAL: rank by count after grouping
[11] = P3_MAL: rank by count before grouping
[12] = P3_MAL pool: P3 T-Surf phage library
[13] = selection against MAL TIR, rank by count after grouping
[14] = selection against MAL TIR, rank by count before grouping

T1 sequence (P58753 79-221): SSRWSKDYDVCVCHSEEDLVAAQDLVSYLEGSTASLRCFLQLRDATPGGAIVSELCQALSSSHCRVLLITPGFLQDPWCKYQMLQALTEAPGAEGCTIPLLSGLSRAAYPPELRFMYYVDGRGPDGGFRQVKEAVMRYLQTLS

- P3_MAL Rank (after) [1]: 629
- P3_MAL Rank (before) [2]: 2147
Substance: LQNQWKLALTAAANLSGW

- P8_MAL Rank (after) [1]: 642
- P8_MAL Rank (before) [2]: 1437
Substance: SFLHFLLFSRPETASI

- P3_MAL Rank (after) [3]: 754
- P3_MAL Rank (before) [4]: 3239
Substance: TSFREGLLRLLELSKK

- P3_MAL Rank (after) [1]: 666
- P3_MAL Rank (before) [2]: 1358
Substance: YAFTGHFHCCKLQRGV

- P3_MAL Rank (after) [5]: 574
- P3_MAL Rank (before) [6]: 2748
Substance: PNLRNKVLNYLLRTKT

- Population [7]: 0.00402% and 0.00278%
Substance: *FYERLVSLILRDTKV

- P8_MAL Rank (after) [5]: 545
- P8_MAL Rank (before) [6]: 2298
Substance: RNNLMDRLYQALDLLR

- Rank (after) [8]: 159
- Rank (before) [9]: 1814
Substance: AFLYDFLINLTHQTNF

- P3_MAL Rank (after) [5]: 529
- P3_MAL Rank (before) [6]: 3531
Substance: KGLTEIADLKGKKCDR

- Rank (after) [10]: 451
- Rank (before) [11]: 1266
Substance: WFWNNLKYALPLRYDP

- P3_MAL Rank (after) [1]: 628
- P3_MAL Rank (before) [2]: 1147
Substance: FLNFRGLGGRNYFLGH

- P3_MAL Rank (after) [5]: 496
- P3_MAL Rank (before) [6]: 1419
Substance: YAFTGHLHRYLQAKDH

- P8_MAL Rank (after) [3]: 719
- P8_MAL Rank (before) [4]: 2147
Substance: LFLWESLKHLLRSDSL

- Rank (after) [8]: 434
- Rank (before) [9]: 2652
Substance: TRPYLDWPQEPEMHEA

- P3_MAL Rank (after) [3]: 690
- P3_MAL Rank (before) [4]: 2502
Substance: RLLKWKEALHHVLQK

- Rank (after) [8]: 169
- Rank (before) [9]: 2151
Substance: LFCWESLKQLLRSDCR

- Population [12]: 0.00338%
Substance: PNLRTKGLNYLMRTKT

- Population [12]: 0.00413%
Substance: SSFREGLWRLPELSKK

- P3_MAL Rank (after) [5]: 512
- P3_MAL Rank (before) [6]: 1691
Substance: VRVVDDGSVSPLEM

- Rank (after) [8]: 461
- Rank (before) [9]: 1804
Substance: AFLCAHLKSVLGNPTI

- Rank (after) [8]: 417
- Rank (before) [9]: 1934
Substance: ACFWEQRPTVLGKPPM

- P3_MAL Rank (after) [13]: 244
- P3_MAL Rank (before) [14]: 1663
Substance: VEPTQVRKQSGSVKNA

- P8_MAL Rank (after) [13]: 218
- P8_MAL Rank (before) [14]: 926
Substance: RWFLDELVKIMERKRT

- Rank (after) [8]: 455
- Rank (before) [9]: 2301
Substance: RFFLESLKQLLRSDGR

- Population [7]: 0.00278%
Substance: WFYERLESLILRDTKV

- Rank (after) [10]: 96
- Rank (before) [11]: 96
Substance: FISHLYAALQRKHVET

- P3_MAL Rank (after) [13]: 231
- P3_MAL Rank (before) [14]: 827
Substance: LQNQWKLALTQAAN

- P8_MAL Rank (after) [13]: 240
- P8_MAL Rank (before) [14]: 2178
Substance: RSFVASLFQALANKGI

- P8_MAL Rank (after) [1]: 644
- P8_MAL Rank (before) [2]: 2613
Substance: TFLGQTYNAQAPAEIP

- Rank (after) [10]: 430
- Rank (before) [11]: 3163
Substance: SSFREGLWRLPELCKK

- P8_MAL Rank (after) [3]: 691
- P8_MAL Rank (before) [4]: 2059
Substance: LFFWGSLKHLLRSGCR

- P3_MAL Rank (after) [5]: 510
- P3_MAL Rank (before) [6]: 3703
Substance: KMKYWKDALYDASNLS

- P3_MAL Rank (after) [13]: 215
- P3_MAL Rank (before) [14]: 2299
Substance: LKVERWRQALEKADKL

- Population [12]: 0.0132%
Substance: RLLKWKDALHQFHSWV

- Rank (after) [8]: 445
- Rank (before) [9]: 1109
Substance: CFLFTVRSAIYAMNPA

- P8_MAL Rank (after) [13]: 267
- P8_MAL Rank (before) [14]: 1586
Substance: AFFCAHLRTVLGKPTM

- P3_MAL Rank (after) [13]: 222
- P3_MAL Rank (before) [14]: 801
Substance: EWIREQLRRSSQSIAN

- Rank (after) [10]: 393
- Rank (before) [11]: 1892
Substance: DWFLSKLSQHILKKG

- Rank (after) [10]: 110
- Rank (before) [11]: 342
Substance: RLLKWKDALYEAANLS

- P8_MAL Rank (after) [5]: 534
- P8_MAL Rank (before) [6]: 1765
Substance: AFLWTQLKSLLRNTTM

- P8_MAL Rank (after) [3]: 709
- P8_MAL Rank (before) [4]: 1873
Substance: AFLYTFLKNLPHPTNI

- P3_MAL Rank (after) [13]: 228
- P3_MAL Rank (before) [14]: 3389
Substance: NQWRNALTAPANLSGR

- Rank (after) [10]: 170
- Rank (before) [11]: 544
Substance: ESILNQLRHHLQAKDH
